Where two headings read alike, the source gives them in different places.
What was measured:
Type in all cases: cell-based
[1] = system: NALM-6 human B-lineage acute lymphoblastic leukemia cells; assay: MTT cytotoxicity assay, NALM-6
Experimental: (§1) The cytotoxicity assay of synthetic Phorboxazole A and various derivative compounds against human tumor cells was performed using the MTT (3-[4,5-dimethylthiazol-2-yl]-2,5-diphenyl tetrazolium bromide) assay (Boehringer Mannheim Corp., Indianapolis, Ind.). Briefly, exponentially growing brain tumor cells were seeded into a 96-well plate at a density of 2.5×10^4 cells/well and incubated for 36 hours at 37° C. prior to drug exposure. On the day of treatment, culture medium was carefully aspirated from the wells and replaced with fresh medium containing the various phorboxazole A derivative compounds as well as the tyrosine kinase inhibitory isoflavone genistein (GEN) at concentrations ranging from 0.1 to 250 μM. Triplicate wells were used for each treatment.
(§2) Human glioblastoma cells U373 (brain cancer), human B-lineage acute lymphoblastic leukemia cells NALM-6, and human breast cancer cells BT-20 were obtained from American Type Culture Collection (Rockville, Md.) and maintained as a continuous cell line in Dulbecco's modified Eagles's medium supplemented with 10% fetal bovine serum and antibiotics.
(§3) The cells were incubated with the various compounds for 24-36 hours at 37° C. in a humidified 5% CO2 atmosphere. To each well, 10 μl of MTT (0.5 mg/ml final concentration) was added and the plates were incubated at 37° C. for 4 hours to allow MTT to form formazan crystals by reacting with metabolically active cells. The fonnazan crystals were solubilized overnight at 37° C. in a solution containing 10% SDS in 0.01 M HCl. The absorbance of each well was measured in a microplate reader (Labsystems) at 540 nm and a reference wavelength of 690 nm. To translate the OD540 values into the number of live cells in each well, the OD540 values were compared to those on standard OD540-versus-cell number curves generated for each cell line. The percent survival was calculated using the formula: [formula]
(§4) The IC50 values were calculated by non-linear regression analysis.

[2] = system: BT-20 human breast cancer cells; assay: MTT cytotoxicity assay, BT-20
Experimental: as §1, §2, §3, §4

[3] = system: U373 human glioblastoma cells; assay: MTT cytotoxicity assay, U373; conditions: U373 MG, read-out: IC50 [MTT]
Experimental: as §1, §2, §3, §4

[4] = NALM-6 (leukemia, ALL), 24-36 hours, read-out: IC50 [MTT]
[5] = BT-20 (breast cancer), 24-36 hours, read-out: IC50 [MTT]
[6] = U373 (brain tumor, glioblastoma), 24-36 hours

Measured: IC50

C=C1C[C@@H]2C[C@@H]3C[C@@H](O)C[C@@H](O3)c3coc(n3)/C=C/C[C@H]3O[C@@H](/C(C)=C/c4coc(C)n4)[C@H](C)[C@@H](OC(=O)/C=C\C[C@@H](C1)O2)[C@H]3C [Compound 2, 32-Methyl-phorboxolide A (C1-C32 analog)]
> 2000 nM: [1]; NALM-6, read-out: IC50 [MTT] | [2]; BT-20, read-out: IC50 [MTT] | [3]

C=C1C[C@@H]2C[C@@H]3C[C@@H](O)C[C@@H](O3)c3coc(n3)/C=C/C[C@H]3O[C@@H](/C(C)=C/c4coc(C[C@]5(O)C[C@H](OC)C[C@H](CO)O5)n4)[C@H](C)[C@@H](OC(=O)/C=C\C[C@@H](C1)O2)[C@H]3C [Compound 3, C1-C38 Phorboxazole A]
> 2000 nM: [1]; [4] | [2]; [5] | [3]; [6]

C#CC[C@H](/C=C/C(C)=C/[C@@H](O)[C@H]1C[C@@H](OC)C[C@](Cc2nc(/C=C(\C)[C@@H]3O[C@@H]4C/C=C/c5nc(co5)[C@H]5C[C@H](O)C[C@@H](C[C@H]6CC(=C)C[C@H](C/C=C\C(=O)O[C@@H]([C@H]4C)[C@H]3C)O6)O5)co2)(OC)O1)OC [Compound 7, 45,46-Dehydrobromo-33-O-methyl-Phorboxazole A]
> 2000 nM: [1]; [4] | [2]; [5] | [3]; [6]

C=C1C[C@@H]2C[C@@H]3C[C@@H](O)C[C@@H](O3)c3coc(n3)/C=C/C[C@H]3O[C@@H](/C(C)=C/c4coc(C[C@]5(O)C[C@H](OC)C[C@H]([C@H](O)/C=C(C)/C=C/[C@@H](C/C=C/Br)OC)O5)n4)[C@H](C)[C@@H](OC(=O)CCC[C@@H](C1)O2)[C@H]3C [Compound 10, 2,3-Dihydrophorboxazole A]
> 2000 nM: [1]; [4] | [2]; [5] | [3]; [6]

Source: patent publication US6797721B2, “Phorboxazole derivatives for treating cancer” (Parker Hughes Institute, priority 1999, dated 2004)
